One assay deals with CDK1/Cyclin B (Homo sapiens, UniProt P06493). The assay can be described thus: CDK1/cyclin B kinase assay (GST-Rb phosphorylation).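 Further: Enzyme: His-tagged CDK1/Cyclin B co-expressed in baculovirus-infected Sf9 insect cells, purified via metal-chelate chromatography.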
Another assay addresses T1, CDK2/Cyclin E (Homo sapiens, UniProt P24941).
T1 construct: His; made in house; host or cells: Sf9 insect cells (baculovirus)
The assay can be described thus: CDK2/cyclin E kinase assay (GST-Rb phosphorylation).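 Further: enzyme source: His-tagged CDK2/cyclin E complex co-expressed recombinantly in Sf9 insect cells using baculovirus constructs.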 The class given is biochemical.

The target in the next assay is CDK9/cyclin T1 (Homo sapiens, UniProt P50750). The assay can be described thus: CDK9 assay (CTD peptide substrate). It is filed as biochemical. The method, then: CTD peptide substrate (biotinyl-Ahx-(Tyr-Ser-Pro-Thr-Ser-Pro-Ser)4-NH2; 1-2 mg/mL) and recombinant human CDK7/cyclin H, CDK9/cyclin T1, or CDK9/cyclin K (0.5-2 μg) were incubated for 45 min at 30° C. in the presence of varying amounts of test compound in 20 mM MOPS pH 7.2, 25 mM β-glycerophosphate, 5 mM EGTA, 1 mM DTT, 1 mM sodium vanadate, 15 mM MgCl2, and 100 μM ATP (containing a trace amount of ^32PγATP) in a total volume of 25 μL in a 96-well microtiter plate. The reaction was stopped by placing the plate on ice for 2 min. Avidin (50 μg) was added to each well, and the plate was incubated at room temp for 30 min. The samples were transferred to a 96-well P81 filter plate, and washed (4×200 μL per well) with 75 mM phosphoric acid. Microscint 40 scintillation liquid (50 μL) was added to each well, and the amount of ^32P incorporation for each sample was measured using a Packard Topcount microplate scintillation counter.
Chain of CDK9/cyclin T1 (P50750 whole entry): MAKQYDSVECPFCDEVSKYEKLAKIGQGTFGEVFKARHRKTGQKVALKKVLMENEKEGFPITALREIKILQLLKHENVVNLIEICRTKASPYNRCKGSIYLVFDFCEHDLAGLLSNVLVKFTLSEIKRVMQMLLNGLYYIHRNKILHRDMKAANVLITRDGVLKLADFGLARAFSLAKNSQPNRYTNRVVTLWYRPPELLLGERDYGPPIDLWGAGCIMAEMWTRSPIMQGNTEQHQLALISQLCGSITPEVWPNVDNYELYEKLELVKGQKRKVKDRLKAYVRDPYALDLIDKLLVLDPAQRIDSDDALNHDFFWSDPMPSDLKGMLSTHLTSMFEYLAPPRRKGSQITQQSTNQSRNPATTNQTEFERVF
Chain of CDK9/cyclin T1 (O60563 whole entry partner): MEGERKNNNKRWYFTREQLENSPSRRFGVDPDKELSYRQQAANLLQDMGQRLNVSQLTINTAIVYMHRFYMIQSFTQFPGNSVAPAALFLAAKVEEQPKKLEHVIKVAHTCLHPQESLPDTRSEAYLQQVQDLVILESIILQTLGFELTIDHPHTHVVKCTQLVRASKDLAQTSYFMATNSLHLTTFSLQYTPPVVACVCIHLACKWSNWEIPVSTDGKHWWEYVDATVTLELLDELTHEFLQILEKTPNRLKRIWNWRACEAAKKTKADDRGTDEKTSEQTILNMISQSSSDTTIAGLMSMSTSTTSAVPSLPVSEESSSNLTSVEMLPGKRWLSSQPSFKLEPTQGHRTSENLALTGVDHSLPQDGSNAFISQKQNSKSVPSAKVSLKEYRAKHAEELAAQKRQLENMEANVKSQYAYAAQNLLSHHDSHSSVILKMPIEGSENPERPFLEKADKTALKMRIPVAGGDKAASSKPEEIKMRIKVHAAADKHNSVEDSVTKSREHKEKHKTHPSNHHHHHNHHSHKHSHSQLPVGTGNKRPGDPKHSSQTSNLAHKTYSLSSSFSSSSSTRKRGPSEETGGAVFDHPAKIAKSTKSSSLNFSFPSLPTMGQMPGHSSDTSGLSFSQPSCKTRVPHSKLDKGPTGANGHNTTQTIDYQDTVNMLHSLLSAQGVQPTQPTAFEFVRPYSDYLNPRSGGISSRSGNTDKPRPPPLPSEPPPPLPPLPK

Where [1] appears, read: Table 3, read-out: Average IC50 CDK2 cyclin E1.
Where [2] appears, read: Table 3, read-out: Average IC50 CDK9 cyclin T1.
The mark [3] stands for this setting: Table 4, read-out: Kinase Inhibition IC50 CDK9-cyclin T1.

Like-named read-outs stand apart in the source and are kept apart here.

Chain of CDK1/Cyclin B (P06493 whole entry, species assumed): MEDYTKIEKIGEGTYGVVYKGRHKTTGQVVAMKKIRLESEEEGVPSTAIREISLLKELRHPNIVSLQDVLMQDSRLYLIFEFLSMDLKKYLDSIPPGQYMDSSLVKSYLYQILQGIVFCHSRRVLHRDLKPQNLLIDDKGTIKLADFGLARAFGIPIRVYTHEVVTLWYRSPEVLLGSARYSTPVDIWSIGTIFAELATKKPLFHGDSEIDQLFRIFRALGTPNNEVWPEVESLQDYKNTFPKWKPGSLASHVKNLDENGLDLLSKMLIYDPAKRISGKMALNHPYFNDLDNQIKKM
Chain of CDK1/Cyclin B (P14635 whole entry partner, species assumed): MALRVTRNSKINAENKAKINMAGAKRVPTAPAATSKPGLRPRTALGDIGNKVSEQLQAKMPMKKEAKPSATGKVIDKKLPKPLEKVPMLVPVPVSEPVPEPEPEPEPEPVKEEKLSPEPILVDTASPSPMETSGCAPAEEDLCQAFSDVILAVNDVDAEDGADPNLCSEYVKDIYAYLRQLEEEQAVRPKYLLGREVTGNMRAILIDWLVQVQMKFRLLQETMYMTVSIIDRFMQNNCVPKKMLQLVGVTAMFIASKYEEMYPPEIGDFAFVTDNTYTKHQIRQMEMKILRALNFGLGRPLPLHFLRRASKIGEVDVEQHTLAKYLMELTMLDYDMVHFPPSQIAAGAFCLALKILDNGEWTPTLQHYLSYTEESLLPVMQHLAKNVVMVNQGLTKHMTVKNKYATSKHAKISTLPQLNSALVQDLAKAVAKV
Method for CDK2/Cyclin E: His-tagged CDK2/Cyclin E and CDK1/Cyclin B may be co-expressed and PKCα singularly expressed in Sf 9 insect cells infected with the appropriate baculovirus constructs. The cells are harvested two days after infection by low speed centrifugation and the proteins purified from the insect cell pellets by Metal-chelate chromatography. Briefly, the insect cell pellet is lysed in Buffer A (10 mM Tris-HCl, pH 8.0, 150 mM NaCl, 0.02% NP40 and 5 mM β-marcaptoethanol, 1 mM NaF. 1 mM Na3VO4 and Protease Inhibitors Coctail (Sigma) containing AEBSF, pepstatin A, E 64, bestatin, leupeptin) by sonication. The soluble fraction is cleared by centrifugation and loaded onto Ni-NTA-Agarose (Quiagen). Non bound proteins were washed off with 300 mM NaCl, 5-15 mM Imidazole in Buffer A and the bound proteins eluted with 250 mM Imidazole in Buffer A. The purified proteins are extensively dialyzed against Storage buffer (20 mM HEPES pH 7.4, 50 mM NaCl, 2 mM DTT, 1 mM EDTA, 1 mM EGTA, 0.02% NP40, 10% v/v Glycerol) aliquoted and stored at −70° C.

For the compound `Cc1nc(C)c(-c2ccnc(Nc3ccc(Cl)cc3)n2)s1` [Compound 2, (4-Chloro-phenyl)-[4-(2,4-dimethyl-thiazol-5-yl)-pyrimidin-2-yl]-amine], the IC50 against CDK1/Cyclin B is 14000 nM; against CDK2/Cyclin E it was 5100 nM.
As to `Cc1nc(C)c(-c2ccnc(Nc3ccccc3F)n2)s1` [Compound 7, [4-(2,4-Dimethyl-thiazol-5-yl)-pyrimidin-2-yl]-(2-fluoro-phenyl)-amine], at CDK1/Cyclin B, the IC50 came to 12000 nM.
Turning to `Cc1nc(C)c(-c2ccnc(Nc3cc(F)cc(F)c3)n2)s1` [Compound 10, (3,5-Difluoro-phenyl)-[4-(2,4-dimethyl-thiazol-5-yl)-pyrimidin-2-yl]-amine], the IC50 on CDK1/Cyclin B was 5500 nM; on CDK2/Cyclin E (setting [1]) it was 5900 nM.
For `Cc1nc(C)c(-c2ccnc(Nc3cc(Cl)cc(Cl)c3)n2)s1` [Compound 11, (3,5-Dichloro-phenyl)-[4-(2,4-dimethyl-thiazol-5-yl)-pyrimidin-2-yl]-amine] the same measures were 20000 nM and 10000 nM.
Regarding `Cc1nc(C)c(-c2ccnc(Nc3ccc(Cl)cc3Cl)n2)s1` [Compound 12, (2,4-Dichloro-phenyl)-[4-(2,4-dimethyl-thiazol-5-yl)-pyrimidin-2-yl]-amine], the half-inhibitory concentration (IC50) on CDK2/Cyclin E (setting [1]) is 10000 nM.
On to `Cc1nc(C)c(-c2ccnc(Nc3cccc(I)c3)n2)s1` [Compound 20, [4-(2,4-Dimethyl-thiazol-5-yl)-pyrimidin-2-yl]-(3-iodo-phenyl)-amine], for which the IC50 at CDK2/Cyclin E (setting [1]) was determined as 6800 nM.
Take `Cc1nc(C)c(-c2ccnc(Nc3cccc(F)c3)n2)s1` [Compound 22, [4-(2,4-Dimethyl-thiazol-5-yl)-pyrimidin-2-yl]-(3-fluoro-phenyl)-amine]: the IC50 on CDK2/Cyclin E (setting [1]) was found to be 220 nM.
As for `Cc1nc(C)c(-c2ccnc(Nc3ccc(F)c(F)c3)n2)s1` [Compound 23, (3,4-Difluoro-phenyl)-[4-(2,4-dimethyl-thiazol-5-yl)-pyrimidin-2-yl]-amine], the IC50 at CDK9/cyclin T1 (setting [2]) amounted to 3110 nM.
Consider `COc1ccccc1Nc1nccc(-c2sc(C)nc2C)n1` [Compound 24, [4-(2,4-Dimethyl-thiazol-5-yl)-pyrimidin-2-yl]-(2-methoxy-phenyl)-amine], for which the IC50 at CDK2/Cyclin E (setting [1]) was found to be 6300 nM.
With `COc1cccc(Nc2nccc(-c3sc(C)nc3C)n2)c1` [Compound 25, [4-(2,4-Dimethyl-thiazol-5-yl)-pyrimidin-2-yl]-(3-methoxy-phenyl)-amine], at CDK2/Cyclin E (setting [1]), the IC50 was found to be 440 nM.
For the compound `Cc1nc(C)c(-c2ccnc(Nc3ccc(C(=O)O)cc3)n2)s1` [Compound 40, 4-[4-(2,4-Dimethyl-thiazol-5-yl)-pyrimidin-2-ylamino]-benzoic acid], at CDK2/Cyclin E (setting [1]), the concentration for half-maximal inhibition (IC50) came out at 740 nM.
Consider `Cc1nc(C)c(-c2cc(Br)nc(Nc3cccc([N+](=O)[O-])c3)n2)s1` [Compound 41, [4-Bromo-6-(2,4-dimethyl-thiazol-5-yl)-pyrimidin-2-yl]-(3-nitro-phenyl)-amine], for which the IC50 at CDK2/Cyclin E (setting [1]) was 580 nM.
With `CCNc1nc(C)c(-c2ccnc(Nc3ccc(F)cc3)n2)s1` [Compound 60, [4-(2-Ethylamino-4-methyl-thiazol-5-yl)-pyrimidin-2-yl]-(4-fluoro-phenyl)-amine], the IC50 on CDK2/Cyclin E (setting [1]) turned out to be 510 nM.
For the compound `C=CCNc1nc(C)c(-c2ccnc(Nc3ccc(F)cc3)n2)s1` [Compound 67, [4-(2-Allylamino-4-methyl-thiazol-5-yl)-pyrimidin-2-yl]-(4-fluoro-phenyl)-amine], at CDK2/Cyclin E (setting [1]), the concentration for half-maximal inhibition (IC50) worked out at 1300 nM.
On to `C=CCNc1nc(C)c(-c2ccnc(Nc3cccc([N+](=O)[O-])c3)n2)s1` [Compound 69, [4-(2-Allylamino-4-methyl-thiazol-5-yl)-pyrimidin-2-yl]-(3-nitro-phenyl)-amine], for which the IC50 on CDK9/cyclin T1 (setting [2]) stood at 68 nM.
With `CNc1nc(C)c(-c2ccnc(Nc3ccc(C(F)(F)F)cc3)n2)s1` [Compound 74, [4-(4-Methyl-2-methylamino-thiazol-5-yl)-pyrimidin-2-yl]-(4-trifluoromethyl-phenyl)-amine], the IC50 at CDK2/Cyclin E (setting [1]) is 1900 nM.
The same measure, in the same setting: then `COc1ccc(Nc2nccc(-c3sc(C)nc3C)n2)c(O)c1` [Compound 79, 2-[4-(2,4-Dimethyl-thiazol-5-yl)-pyrimidin-2-ylamino]-5-methoxy-phenol], with 1200 nM; and `COC(=O)c1cc(Nc2nccc(-c3sc(C)nc3C)n2)ccc1Cl` [Compound 83, 2-Chloro-5-[4-(2,4-dimethyl-thiazol-5-yl)-pyrimidin-2-ylamino]-benzoic acid methyl ester], with 2000 nM; and `CNc1nc(C)c(-c2ccnc(Nc3ccc(OC)cc3)n2)s1` [Compound 93, (4-Methoxy-phenyl)-[4-(4-methyl-2-methylamino-thiazol-5-yl)-pyrimidin-2-yl]-amine], with 1 nM.
Take `O=[N+]([O-])c1ccc(Nc2ncc(-c3ccnc(Nc4ccc(O)cc4)n3)s2)cc1` [Compound 95, 4-{4-[2-(4-Nitro-phenylamino)-thiazol-5-yl]-pyrimidin-2-ylamino}-phenol]: on CDK2/Cyclin E (setting [1]), the half-maximal inhibitory concentration (IC50) was 120 nM.
Turning to `Cc1nc(C)c(-c2ccnc(Nc3cccc(CO)c3)n2)s1` [Compound 100, {3-[4-(2,4-Dimethyl-thiazol-5-yl)-pyrimidin-2-ylamino]-phenyl}-methanol], the IC50 at CDK2/Cyclin E (setting [1]) was 190 nM.
For `Cc1nc(N)sc1-c1ccnc(Nc2ccc(N(C)C)cc2)n1` [Compound 106, N-[4-(2-Amino-4-methyl-thiazol-5-yl)-pyrimidin-2-yl]-N′,N′-dimethyl-benzene-1,4-diamine], at CDK9/cyclin T1 (setting [2]), the IC50 was found to be 240 nM.
Regarding `COc1ccc(Nc2nccc(-c3sc(N)nc3C)n2)cc1` [Compound 111, [4-(2-Amino-4-methyl-thiazol-5-yl)-pyrimidin-2-yl]-(4-methoxy-phenyl)-amine], at CDK2/Cyclin E (setting [1]), the IC50 was determined as 670 nM.
For the compound `Cc1nc(N)sc1-c1ccnc(Nc2cccc(Br)c2)n1` [Compound 119, [4-(2-Amino-4-methyl-thiazol-5-yl)-pyrimidin-2-yl]-(3-bromo-phenyl)-amine], the IC50 at CDK9/cyclin T1 (setting [2]) was 280 nM.
Turning to `CNc1nc(C)c(-c2ccnc(Nc3ccc(N(C)C)cc3)n2)s1` [Compound 131, N,N-Dimethyl-N′-[4-(4-methyl-2-methylamino-thiazol-5-yl)-pyrimidin-2-yl]-benzene-1,4-diamine], the IC50 at CDK9/cyclin T1 (setting [2]) came to 170 nM.
The same measure, in the same setting: in the case of `CNc1nc(C)c(-c2ccnc(Nc3ccc(I)c([N+](=O)[O-])c3)n2)s1` [Compound 132, (4-Iodo-3-nitro-phenyl)-[4-(4-methyl-2-methylamino-thiazol-5-yl)-pyrimidin-2-yl]-amine] it was 110 nM.
Regarding `Cc1nc(NCCO)sc1-c1ccnc(Nc2cccc([N+](=O)[O-])c2)n1` [Compound 144, 2-{4-Methyl-5-[2-(3-nitro-phenylamino)-pyrimidin-4-yl]-thiazol-2-ylamino}-ethanol], the IC50 on CDK9/cyclin T1 (setting [2]) worked out at 4 nM.
Consider `Cc1nc(NCCO)sc1-c1ccnc(Nc2ccc(F)cc2)n1` [Compound 145, 2-{5-[2-(4-Fluoro-phenylamino)-pyrimidin-4-yl]-4-methyl-thiazol-2-ylamino}-ethanol], for which the half-maximal inhibitory concentration (IC50) on CDK9/cyclin T1 (setting [2]) worked out at 8 nM.
Regarding `Cc1c(-c2ccnc(Nc3ccc(O)cc3)n2)sc(=O)n1C` [Compound 152, 5-[2-(4-Hydroxy-phenylamino)-pyrimidin-4-yl]-3,4-dimethyl-3H-thiazol-2-one], the IC50 at CDK9/cyclin T1 (setting [3]) is 2.3 nM.
`Cc1c(-c2ccnc(Nc3ccc(F)cc3)n2)sc(=O)n1C` [Compound 155, 5-[2-(4-Fluoro-phenylamino)-pyrimidin-4-yl]-3,4-dimethyl-3H-thiazol-2-one]: the IC50 on CDK9/cyclin T1 (setting [3]) was 2.7 nM.

What is called IC50 is the concentration that inhibits the measured activity by half.

For the origin of these results see patent US20050288307A1, “Anti-viral compounds” (priority 2002, published 2005).
